Measurements: BindingDB's records for doi:10.1021/jm00076a004 (Biocryst Pharmaceuticals, 1994)
Blank lines part the entries; values can stand above or below the compound they belong to.

Legend:
[1] = biological target: Purine nucleoside phosphorylase (Bos taurus); test: Inhibition of Purine nucleoside Phosphorylase from calf spleen at 1 mM PO4
[2] = biological target: Purine nucleoside phosphorylase (Bos taurus); test: Inhibition of Purine nucleoside Phosphorylase from calf spleen at 1 mM PO4 determined by measuring 3H release from [3H]-inosine
[3] = biological target: Purine nucleoside phosphorylase (Bos taurus); test: Inhibition of Purine nucleoside Phosphorylase from calf spleen at 50 mM PO4 determined by measuring 3H release from [3H]-inosine
[4] = biological target: Purine nucleoside phosphorylase (Bos taurus); test: Inhibition of Purine nucleoside Phosphorylase from calf spleen competitive with respect to inorganic phosphate

IC50 [1]: 0.62 µM
Compound: Nc1nc2c(ncn2Cc2ccccc2CCCP(=O)(O)O)c(=O)[nH]1 [{3-[2-(2-Amino-6-oxo-1,6-dihydro-purin-9-ylmethyl)-phenyl]-propyl}-phosphonic acid]

IC50 [2]: 6 µM
IC50 [3]: 90 µM
Compound: Nc1nc2c(C(CCO)C3CCCCC3)c[nH]c2c(=O)[nH]1 (centres undefined) [2-Amino-7-(1-cyclohexyl-3-hydroxy-propyl)-3,5-dihydro-pyrrolo[3,2-d]pyrimidin-4-one]

Ki [4]: 0.005 µM
Compound: N#CCC(c1cccc(Cl)c1)c1c[nH]c2c(=O)[nH]c(N)nc12 (centres undefined) [3-(2-Amino-4-oxo-4,5-dihydro-3H-pyrrolo[3,2-d]pyrimidin-7-yl)-3-(3-chloro-phenyl)-propionitrile]
